This note sets out measurements from patent US20080261959A1, “Novel crystalline forms of (S)-N-(1-Carboxy-2-methyl-prop-1-y)-N-pentanoyl-N[2'-(1H-tetrazol-5-yl)bi-phenyl-4-ylmethyl]-amine” (priority 2005, published 2008).

Structures are written as SMILES.

A short description of this data set: Comparative bulk density determination. Particulars: for Bulk density: powder sample. The data set is classed as physicochemical.

As for `CCCCC(=O)N(Cc1ccc(-c2ccccc2-c2nnn[nH]2)cc1)[C@H](C(=O)O)C(C)C` [Amorphous valsartan, (S)-N-(1-Carboxy-2-methyl-prop-1-yl)-N-pentanoyl-N-[2′-(1H-tetrazol-5-yl)bi-phenyl-4-ylmethyl]-amine], the “Tapped density (1250 taps)” value is listed as 0.504 gm/ml and the Bulk density stood at 0.37 gm/ml.
Take `CCCCC(=O)N(Cc1ccc(-c2ccccc2-c2nnn[nH]2)cc1)[C@H](C(=O)O)C(C)C` [Form D, (S)-N-(1-Carboxy-2-methyl-prop-1-yl)-N-pentanoyl-N-[2′-(1H-tetrazol-5-yl)bi-phenyl-4-ylmethyl]-amine]: where the note is “listed as ‘Form D’ Vlasartan”, the “Tapped density (1250 taps)” value was determined as 0.6139 gm/ml and the Bulk density is given as 0.4561 gm/ml.
